The structures appear in SMILES notation.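 Growth conditions: 96-well plates. Treatment: test compound, 48 hours, 5 concentrations. Analysis: linear interpolation between bracketing concentrations; unreached endpoints set to highest concentration. TGI denotes the concentration required for complete inhibition of growth.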

This passage reports TGI results from PubChem BioAssay (NCI).

Test systems include CAKI-1 renal; COLO 205 colon; HL-60(TB) leukemia; HOP-62 NSCLC; HT29 colon; KM12 colon; NCI-H522 lung; RPMI-8226 leukemia; SF-268 CNS; SNB-75 CNS.
Common to all, as to assay: NCI tumour cell line growth inhibition, 48 h

`NC(=S)Nc1ccc2c(c1)oc1ccccc12`: the TGI with CAKI-1 renal, with COLO 205 colon, in the test on HL-60(TB) leukemia, in the test with HOP-62 NSCLC, in the test on HT29 colon and in the test with KM12 colon was > 100 µM each time. Moreover, the TGI in the test on NCI-H522 lung, in the test with RPMI-8226 leukemia, in the test with SF-268 CNS and with SNB-75 CNS was > 100 µM each time.
`C/C(=N/NC(=S)Nc1cccc(Cl)c1)c1ccccn1`: the TGI in the test on CAKI-1 renal was determined as 11.8 µM; in the test with COLO 205 colon it was 5.18 µM; in the test on HL-60(TB) leukemia, 0.5 µM; with HOP-62 NSCLC, 3.5 µM; with HT29 colon, 13.9 µM; in the test with KM12 colon, 13.5 µM. Moreover, the TGI came out at 2.41 µM in the test on NCI-H522 lung, 17.8 µM in the test with RPMI-8226 leukemia, 12.5 µM with SF-268 CNS and 11.7 µM with SNB-75 CNS.
Take `N=c1n(CC(=O)NC23CC4CC(CC(C4)C2)C3)c2ccccc2n1CC(=O)NC12CC3CC(CC(C3)C1)C2`: the TGI with CAKI-1 renal was determined as 24.3 µM; in the test on COLO 205 colon, 3.49 µM; in the test on HL-60(TB) leukemia it was 4.82 µM; with HOP-62 NSCLC, 3.48 µM; with HT29 colon it was 3.21 µM; with KM12 colon, 2.98 µM. For the same compound, the TGI in the test on NCI-H522 lung was found to be 3.3 µM; with RPMI-8226 leukemia, 6.07 µM; in the test with SF-268 CNS, 3.72 µM; in the test on SNB-75 CNS, 4.12 µM.
As to `CC(C(=O)NCCNC(=O)CCC(=O)N(C)O)C(=O)NCCNC(=O)CCC(=O)N(C)O`, the TGI with CAKI-1 renal, in the test with COLO 205 colon, in the test with HL-60(TB) leukemia, in the test with HOP-62 NSCLC, with HT29 colon and in the test on KM12 colon was > 100 µM in each case. Moreover, the TGI in the test with NCI-H522 lung, with RPMI-8226 leukemia, with SF-268 CNS and with SNB-75 CNS was > 100 µM each time.
